Results as given in patent US10227331B2 (priority 2015, dated 2019).
Read-outs that look alike come from different tables or passages of the source.

Tests used:
[1] = target: NDM-1 (Klebsiella pneumoniae, UniProt C7C422); experiment: biochemical; type: biochemical
Summary of the method: (§1)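 Fluorescence assay of metallo-β-lactamase activity using CCF2-FA, a cephalosporin-linked 7-hydroxycoumarin–fluorescein substrate. Inhibitor, enzyme and substrate were incubated together for 2 hours at 25° C. IC50 came from a 4-parameter fit of inhibition versus inhibitor concentration.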

[2] = target: IMP-1 (Serratia marcescens, UniProt P52699); experiment: biochemical; type: biochemical; conditions: CCF2-FA substrate, 2 hours at 25° C; read-out: IMP-1 IC50
IMP-1, sequence (P52699 whole entry, looked up, species assumed): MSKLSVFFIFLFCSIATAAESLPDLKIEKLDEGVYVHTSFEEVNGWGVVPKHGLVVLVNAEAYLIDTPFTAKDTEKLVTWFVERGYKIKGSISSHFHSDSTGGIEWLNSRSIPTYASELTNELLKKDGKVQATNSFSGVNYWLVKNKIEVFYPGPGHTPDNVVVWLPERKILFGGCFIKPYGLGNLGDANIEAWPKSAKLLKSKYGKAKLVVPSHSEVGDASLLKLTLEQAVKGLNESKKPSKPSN
Summary of the method: as §1

[3] = test system: Serratia marcescens expressing IMP-1 (CL5741); type: cell-based; conditions: with imipenem 1 μg/ml, 95% inhibition of bacterial growth; for Serratia marcescens MITC95: IMP-1 (CL5741)
Summary of the method: (§2)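 Clinical strains grown overnight on blood agar, then diluted 1:100 in 1.1× CAMHB and exposed to test compound with imipenem at 1 μg/ml. Incubation was 22–24 h at 35° C; growth was read by absorbance to find the compound concentration restoring imipenem susceptibility.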

[4] = test system: Escherichia coli expressing NDM-1 (CLB30005, CLB30016); type: cell-based; conditions: with imipenem 1 μg/ml, 95% inhibition of bacterial growth; for Escherichia coli MITC95: NDM-1 (CLB30016)
Summary of the method: as §2

[5] = test system: Klebsiella pneumoniae expressing VIM-1 (IHMA599644); type: cell-based; conditions: with imipenem 1 μg/ml, 95% inhibition of bacterial growth; for Klebsiella pneumoniae MITC95: VIM-1 (IHMA599644)
Summary of the method: as §2

[6] = test system: P. aeruginosa expressing IMP-1, efflux− (MB9799); experiment: Efflux: concentration of MBL inhibitor which restores susceptibility to imipenem; type: cell-based, Pseudomonas aeruginosa; conditions: imipenem at 2 μg/mL, in the presence of a class A, C, D serine β-lactamase inhibitor closely related to relebactam
Source text: (§3) The strain background is Pseudomonas aeruginosa PAO1.

[7] = test system: P. aeruginosa expressing IMP-1, efflux+ (MB9798); type: cell-based, Pseudomonas aeruginosa; conditions: for P. aeruginosa expressing IMP-1, efflux+ (MB9798) MITC95: imipenem at 2 μg/mL, in the presence of a class A, C, D serine β-lactamase inhibitor closely related to relebactam; for Efflux ratio: ratio MITC95 PA_9798/MITC95 PA_9799
Source text: as §3

[8] = target: VIM-1 (Pseudomonas aeruginosa (strain ATCC 15692 / DSM 22644 / CIP 104116 / JCM 14847 / LMG 12228 / 1C / PRS 101 / PAO1), UniProt A0A0F7KYQ8); experiment: biochemical; conditions: CCF2-FA substrate, 2 hours at 25° C
Summary of the method: as §1

[9] = CCF2-FA substrate, 2 hours at 25° C, read-out: NDM-1 IC50

NDM-1, sequence (C7C422 whole entry, looked up, species assumed): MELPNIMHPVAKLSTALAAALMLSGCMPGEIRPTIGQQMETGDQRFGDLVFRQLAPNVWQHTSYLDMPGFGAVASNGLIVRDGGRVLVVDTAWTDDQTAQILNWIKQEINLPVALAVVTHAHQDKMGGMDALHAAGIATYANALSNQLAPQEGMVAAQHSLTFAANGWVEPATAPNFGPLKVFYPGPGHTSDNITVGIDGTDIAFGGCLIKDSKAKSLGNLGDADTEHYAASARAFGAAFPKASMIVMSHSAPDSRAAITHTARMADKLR

Compound	IC50 [1] [nM]	IC50 [2] [nM]	Serratia marcescens MITC95 [3] [µM]	Escherichia coli MITC95 [4] [µM]	Klebsiella pneumoniae MITC95 [5] [µM]	P. aeruginosa expressing IMP-1, efflux− (MB9799) MITC95 [6] [µM]	P. aeruginosa expressing IMP-1, efflux+ (MB9798) MITC95 [7] [µM]	Efflux ratio [7]	IC50 [8] [nM]	IC50 [1, 9] [nM]	Serratia marcescens expressing IMP-1 (CL5741) MITC95 [3] [µM]	Escherichia coli expressing NDM-1 (CLB30016) MITC95 [4] [µM]	Klebsiella pneumoniae expressing VIM-1 (IHMA599644) MITC95 [5] [µM]
NCCS(=O)(=O)c1ccc(C2CCNc3ccccc32)c(-c2nn[nH]n2)c1S(N)(=O)=O (stereo not drawn) [Example 272, 6-(2-aminoethylsulfonyl)-3-(1,2,3,4-tetrahydroquinolin-4-yl)-2-(2H-tetrazol-5-yl)benzenesulfonamide]	1.84	6.06	6.25	3.125	6.25	1.563	100	63.98	0.64	–	–	–	–
COc1ccc(-c2ccc(S(=O)(=O)CCN)c(S(N)(=O)=O)c2-c2nnn[nH]2)c2[nH]c(C(F)(F)F)nc12.O=C(O)C(F)(F)F [Example 164, 2-((4-(4-methoxy-2-(trifluoromethyl)-1H-benzo[d]imidazol-7-yl)-2-sulfamoyl-3-(1H-tetrazol-5-yl)phenyl)sulfonyl)ethanaminium 2,2,2-trifluoroacetate]	–	0.233	–	–	–	3.125	6.25	2.00	0.143	0.147	3.125	6.25	6.25
NS(=O)(=O)c1c(S(=O)(=O)C2CNC2)ccc(-c2cccc3scnc23)c1-c1nn[nH]n1 [Example 201, 6-(Azetidin-3-ylsulfonyl)-3-(benzo[d]thiazol-4-yl)-2-(2H-tetrazol-5-yl)benzenesulfonamide]	–	0.153	–	–	–	0.7813	1.563	2.00	0.176	0.0956	1.563	0.7813	3.125
Nc1nc2cc(-c3ccc(S(=O)(=O)C4CNC4)c(S(N)(=O)=O)c3-c3nn[nH]n3)ccn2n1 [Example 217, 3-(2-amino-[1,2,4]triazolo[1,5-a]pyridin-7-yl)-6-(azetidin-3-ylsulfonyl)-2-(2H-tetrazol-5-yl) benzenesulfonamide]	–	3.81	–	–	–	1.563	12.5	8.00	0.313	1.49	3.125	6.25	6.25
Nc1cccc(-c2ccc(S(=O)(=O)C3CNC3)c(S(N)(=O)=O)c2-c2nn[nH]n2)n1 [Example 223, 3-(6-aminopyridin-2-yl)-6-(azetidin-3-ylsulfonyl)-2-(2H-tetrazol-5-yl)benzenesulfonamide]	–	10.2	–	–	–	3.125	6.25	2.00	3.16	2.51	3.125	0.7813	6.25
Cc1n[nH]c2ccc(-c3ccc(S(=O)(=O)C4CNC4)c(S(N)(=O)=O)c3-c3nnn[nH]3)cc12.O=C(O)C(F)(F)F [Example 126, 3-((4-(3-methyl-1H-indazol-5-yl)-2-sulfamoyl-3-(1H-tetrazol-5-yl)phenyl)sulfonyl)azetidin-1-ium 2,2,2-trifluoroacetate]	–	0.715	–	–	–	1.563	12.5	8.00	0.477	0.428	6.25	3.125	6.25
Nc1nc2c(-c3ccc(S(=O)(=O)[C@H]4CN[C@H](CO)C4)c(S(N)(=O)=O)c3-c3nn[nH]n3)cccc2[nH]1 [Example 291, 3-(2-amino-1H-benzo[d]imidazol-4-yl)-6-((3R,5S)-5-(hydroxymethyl)pyrrolidin-3-ylsulfonyl)-2-(2H-tetrazol-5-yl)benzenesulfonamide]	–	0.959	0.7813	0.7813	1.563	0.7813	0.7813	1.00	0.54	0.195	–	–	–
NC[C@@H](O)CS(=O)(=O)c1ccc(-c2cccc3[nH]cnc23)c(-c2nn[nH]n2)c1S(N)(=O)=O [Example 361, (R)-6-((3-amino-2-hydroxypropyl)sulfonyl)-3-(1H-benzo[d]imidazol-4-yl)-2-(2H-tetrazol-5-yl) benzenesulfonamide]	–	0.174	0.7813	0.7813	1.563	0.7813	0.7813	1.00	0.253	0.0905	–	–	–
Nc1nc2c(-c3ccc(S(=O)(=O)C4CNC4)c(S(N)(=O)=O)c3-c3nn[nH]n3)cccc2[nH]1 [Example 43, 3-(2-amino-1H-benzo[d]imidazol-4-yl)-6-(azetidin-3-ylsulfonyl)-2-(2H-tetrazol-5-yl)benzenesulfonamide]	–	0.828	–	–	–	0.6406	0.6081	0.95	0.258	0.0835	0.7982	0.2902	1.151
CS(=O)(=O)Nc1nc2c(-c3ccc(S(=O)(=O)C4CCNCC4)c(S(N)(=O)=O)c3-c3nn[nH]n3)cccc2s1 [Example 325, 3-(2-(methylsulfonamido)benzo[d]thiazol-4-yl)-6-(piperidin-4-ylsulfonyl)-2-(2H-tetrazol-5-yl)benzenesulfonamide]	–	0.239	12.5	12.5	25	6.25	6.25	1.00	0.346	0.0723	–	–	–
NCCS(=O)(=O)c1ccc(-c2ccnc3[nH]ccc23)c(-c2nnn[nH]2)c1S(N)(=O)=O.O=C(O)C(F)(F)F [Example 142, 2-((4-(1H-pyrrolo[2,3-b]pyridin-4-yl)-2-sulfamoyl-3-(1H-tetrazol-5-yl)phenyl)sulfonyl)ethanaminium 2,2,2-trifluoroacetate]	–	0.517	–	–	–	0.7813	3.125	4.00	0.153	0.518	1.563	1.563	3.125
